Test: Solubility of blue dye compounds in PGMEA and cyclohexanone
Format: physicochemical
Conditions: for Solubility in PGMEA: solvent PGMEA (propylene glycol monomethyl ether acetate); for Solubility in cyclohexanone: solvent cyclohexanone

| Solubility in PGMEA [%] | Solubility in cyclohexanone [%] | Structure (SMILES) |
| --- | --- | --- |
| <1 | <3 | C=C(C)C(=O)OCCN(CC)c1ccc(C(=C2C=CC(=[N+](CC)CCOC(=O)C(=C)C)C=C2)c2ccc(Nc3ccccc3)c3ccccc23)cc1 [Comp. Ex. 1] |
| >10 | >10 | C=C(C)C(=O)OCCN(CC)c1ccc(C(=C2C=CC(=[N+](CC)CCOC(=O)C(=C)C)C=C2)c2ccc(Nc3ccccc3)c3ccccc23)cc1 [Syn. Ex. 1] |
| <1 | <3 | CN(C)c1ccc(C(=C2C=CC(=[N+](C)C)C=C2)c2ccc(Nc3ccccc3)c3ccccc23)cc1 [compound 2] |

— patent US20150060744A1, “[…] BLUE DYE COMPOUND, BLUE RESIN COMPOSITION FOR COLOR FILTER CONTAINING SAME AND COLOR FILTER USING SAME” (KYUNG SYNTHETIC CO., LTD., priority 2012, published 2015)
